In assay [1] the target is T1, GDP-loaded KRAS4b (amino acids 1-169) G12C/C118S protein (Homo sapiens, UniProt P01116, C118S/G12C).
T1 construct: KRAS4b (amino acids 1-169) G12C/C118S protein; made in house
The experiment in a line: Covalent cysteine 12 modification by MALDI-TOF MS, GDP-loaded KRAS G12C. The format is binding. Particulars: 15 minutes reaction time point. In short, it runs like this: (§1)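 Percent modification comes from MALDI-TOF peak heights: the compound-adduct peak divided by the sum of the remaining-protein and adduct peaks. Reactions contained 1 μM protein and compound at a 1:2.5 ratio, in pH 7.3 HEPES buffer with NaCl and MgCl2, held 15 min at room temperature.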

The target in assay [2] is T2, Avi-KRAS G12C (1-169) GppNHp/RAF1 RBD-3×FLAG (52-151) (Homo sapiens, UniProt P01116, G12C).
T2 construct: Avi-KRAS G12C (1-169) GppNHp; Avi (N)
The experiment in a line: Raf1 RBD-KRAS G12C-GppNHp disruption assay (protein:protein interaction HTRF). The format is biochemical. On the procedure: Biological Example 2: Disrupting KRAS G12C-Effector Binding (Protein: Protein Interaction HTRF Assay)
A protein: protein interaction (PPI) Homogeneous Time Resolved Fluorescence (HTRF) assay was used to determine the effectiveness of compounds of the present disclosure in disrupting KRAS G12C protein and effector (RAF1 Ras Binding Domain (RBD)) binding.
The HTRF assay used the following reagents and proteins: 50 nM Avi-KRAS G12C (1-169) GppNHp/RAF1 RBD-3×FLAG (52-151); 35 nM Avi-PI3K RBD-3×FLAG; Assay Buffer: 50 mM Tris pH 7.5, 100 mM NaCl, 5 mM MgCl2, 0.1% BSA, 0.01% Tween 20, 10% DMSO; Bead Buffer: 50 mM Tris pH 7.5, 0.01% Tween 20; Assay volume: 20 μL (384 well plate-low volume format); and Compound titration: 30-0.02 μM, 3× dilution series.
The HTRF assay employed the following protocol:
Compounds were dispensed in assay plate (384-well, Grenier Bio-One #784075) using Echo (model 555) with dose response settings: 200 nL final volume, titration from 100 μM as a 10-point dilution series. KRAS proteins were prepared in assay buffer, and dispensed on plates, 5 μL per well, then incubated for 1 h at room temperature, with 700 rpm shaking. RAF1 RBD were prepared in assay buffer, dispensed onto plates, 5 μL per well, and then incubated for 1 h at room temperature, with 700 rpm shaking. Reagent mix was then prepared and dispensed on plates, 10 μL per well, and then incubated for 1 h at room temperature, with 700 rpm shaking.
Plates were analyzed on an Envision plate reader using the following setting: Excitation 320 nm, Bandwidth 75 nm; Emission 615 nm, Bandwidth 85 nm; Gain 100%; Flashes 100; Lag 60 μs. Data was reported as percentage of activity, with DMSO as 100%. Data was plotted and analyzed using Prism 8.
The percent of modification of GppNHp, GTP, or GDP loaded KRAS G12C by MALDI-TOF MS, biochemical Raf1 RBD-KRAS G12C-GppNHp disruption assay IC50, and pERK inhibition IC50 of selected compounds described herein are shown in Table 4. For percent of modification at 15 minutes (MALDI-TOF MS) of GppNHp, GTP, or GDP loaded KRAS G12C: A: percent of modification ≥70%; B: 50≤percent of modification <70%; C: 10%≤percent of modification <50%; D: percent of modification <10%. […] For pERK inhibition in H358 cell assay: A: IC50≤0.1 μM; B: 0.1 μM<IC50≤1 μM; C: IC50>1 μM. Blanks in the table represent that compound was not tested in the indicated assay.
(In general: In TR-FRET formats the signal depends on donor and acceptor labels being close together.)

The target in assay [3] is T3, GTP-loaded KRAS4b (amino acids 1-169) G12C/C118S protein (Homo sapiens, UniProt P01116, C118S/G12C).
T3 construct: KRAS4b (amino acids 1-169) G12C/C118S protein; made in house
The experiment in a line: Covalent cysteine 12 modification by MALDI-TOF MS, GTP-loaded KRAS G12C. The format is binding. The conditions noted are these: 15 minutes reaction time point. In short, it runs like this: as §1

The next assay deals with pERK in NCI-H358 cells. Put plainly: Cell-based pERK HTRF assay (pERK inhibition in H358 cells). The conditions noted are these: Homo sapiens, NCI-H358, 0.5 h, 30 min incubation. In a few lines:
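NCI-H358 cells were seeded at 4×10^4 cells/well in RPMI/10% FBS, then treated next day for 30 min at 0.25% DMSO (9-point, 3-fold series from 75 μM). Lysates were read by HTRF (d2/Eu cryptate antibody pair, 615 nm emission) after 4–24 h at room temperature to give pERK IC50.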

The IC50 is the concentration needed to halve the response being measured. Turning to `C=CC(=O)N1CC[C@H](N(C)c2nc(OC[C@@]34CCCN3C[C@H](F)C4)nc3c(F)c(-c4ccc(F)c5sc(N)c(C#N)c45)c(C(F)(F)F)cc23)[C@@H]1C` [Compound 5], the “GDP-KRAS G12C percent of modification” value in assay [1] was “A (percent of modification ≥70%)”. Further, the IC50 in assay [2] was less than 500 nM.
Regarding `C=CC(=O)N1CC[C@@H](N(C)c2nc(OC[C@@]34CCCN3C[C@H](F)C4)nc3c(F)c(-c4ccc(F)c5sc(N)c(C#N)c45)c(C(F)(F)F)cc23)[C@H]1C` [Compound 6], the “GDP-KRAS G12C percent of modification” value in assay [1] is given as “B (50≤percent of modification <70%)”. In addition, the “GTP-KRAS G12C percent of modification” value in assay [3] is on record as “C (10%≤percent of modification <50%)”. In assay [2], this molecule yielded an IC50 of less than 500 nM.
In the case of `C=CC(=O)N1CC[C@@H](N(C)c2nc(OC[C@@H]3CCCN3CC)nc3c(F)c(-c4ccc(F)c5sc(N)c(C#N)c45)c(Cl)cc23)[C@H]1C` [Compound 89], the IC50 was less than 100 nM with pERK in NCI-H358 cells and less than 500 nM in assay [2]. Moreover, the “GDP-KRAS G12C percent of modification” value in assay [1] is on record as “A (percent of modification ≥70%)”.

The values above are taken from patent US20260232666A1, “COMPOSITIONS AND METHODS FOR INHIBITION OF RAS” (TheRas, Inc., priority 2023, published 2026).
